Numbering of substitutions follows the chain as printed. pKi: −log10 of the molar value. Read-outs that look alike come from different tables or passages of the source. Where only a bound is given, the exact number is not on record here.

By pKi is commonly meant the Ki on a negative log10 scale, so that one unit is a factor of ten. In general, GI50 refers to the concentration that inhibits growth by half.

The target of one experiment is CDK4/D1 (Homo sapiens, UniProt P11802). The experiment in a line: ADP Glo kinase assay, CDK4/D1. In kind it is biochemical. As to conditions: CDK4D1; for remaining activity at 10 µM: compound at 10 μM, read-out: residual enzymatic activity (%) at 10 μM.
A further experiment has as its target CDK6/D3 (Homo sapiens, UniProt Q00534). The experiment in a line: ADP Glo kinase assay, CDK6/D3. In kind it is biochemical. The following applies: CDK6D3; for pKi: apparent Ki calculated from Km (ATP) and IC50, read-out: CDK inhibition Ki; for remaining activity at 10 µM: compound at 10 μM, read-out: residual enzymatic activity (%) at 10 μM.
The target in the next experiment is CDK9/CyclinT1 (Homo sapiens, UniProt P50750). The experiment in a line: ADP Glo kinase assay, CDK9/CyclinT1. The following applies: CDK9T1; for remaining activity at 10 µM: compound at 10 μM, read-out: residual enzymatic activity (%) at 10 μM; for pKi: apparent Ki calculated from Km (ATP) and IC50, read-out: CDK inhibition Ki. Format: biochemical.
Another experiment relates to MV-4-11. The experiment in a line: Proliferation assay (resazurin/MTT), MV-4-11. Format: cell-based. As to conditions: Homo sapiens, MV4-11, read-out: 72 h Growth inhibition GI50, MV-4-11 cells. In general terms: Alamar Blue is a resazurin reagent that responds to reducing activity.
The subject of the next experiment is U937. The experiment in a line: Proliferation assay (resazurin/MTT), U937. As to conditions: Homo sapiens, U-937, read-out: 72 h Growth inhibition GI50, U937 cells. Format: cell-based.
The target in a further experiment is CDK2E1 (Homo sapiens, UniProt P24941).
A further experiment deals with CDK7HMAT1 (Homo sapiens, UniProt P50613).
In experiment [1] the target is T1, CDK1B (Homo sapiens, UniProt P06493). The experiment in a line: biochemical.
For another experiment, the target named is T2, FLT3(WT) (Homo sapiens, UniProt P36888).
T2 sequence (P36888 27-993): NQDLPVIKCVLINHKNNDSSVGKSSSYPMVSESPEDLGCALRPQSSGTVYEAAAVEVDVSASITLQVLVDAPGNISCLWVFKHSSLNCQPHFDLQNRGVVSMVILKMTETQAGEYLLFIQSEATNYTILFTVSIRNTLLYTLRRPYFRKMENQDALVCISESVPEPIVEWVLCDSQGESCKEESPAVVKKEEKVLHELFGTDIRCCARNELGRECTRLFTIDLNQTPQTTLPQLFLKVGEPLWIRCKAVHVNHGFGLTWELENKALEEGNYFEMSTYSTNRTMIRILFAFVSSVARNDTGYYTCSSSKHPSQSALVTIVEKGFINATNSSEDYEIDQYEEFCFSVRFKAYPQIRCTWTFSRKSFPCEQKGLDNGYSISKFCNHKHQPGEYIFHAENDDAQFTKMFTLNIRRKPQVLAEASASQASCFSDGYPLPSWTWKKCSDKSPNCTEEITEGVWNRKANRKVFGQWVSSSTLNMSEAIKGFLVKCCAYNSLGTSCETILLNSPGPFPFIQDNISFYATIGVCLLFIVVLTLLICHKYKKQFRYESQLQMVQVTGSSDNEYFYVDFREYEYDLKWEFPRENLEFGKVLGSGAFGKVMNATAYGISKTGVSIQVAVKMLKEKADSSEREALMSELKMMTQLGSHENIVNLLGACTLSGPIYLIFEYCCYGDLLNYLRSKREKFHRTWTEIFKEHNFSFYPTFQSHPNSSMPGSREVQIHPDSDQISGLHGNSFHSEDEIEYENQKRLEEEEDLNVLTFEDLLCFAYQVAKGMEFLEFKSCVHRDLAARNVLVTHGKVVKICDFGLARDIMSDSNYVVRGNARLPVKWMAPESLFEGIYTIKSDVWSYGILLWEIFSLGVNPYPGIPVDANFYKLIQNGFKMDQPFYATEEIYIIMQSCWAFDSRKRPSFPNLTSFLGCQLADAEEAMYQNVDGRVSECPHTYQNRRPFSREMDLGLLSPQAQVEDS
The experiment in a line: ADP Glo kinase assay, FLT3(WT). As to conditions: for pKi: apparent Ki calculated from Km (ATP) and IC50, read-out: FLT3 inhibition Ki; for remaining activity at 1 µM: compound at 1 μM, read-out: residual enzymatic activity (%) at 1 μM. In kind it is biochemical.

The target in a further experiment is T3, FLT3(ITD) (Homo sapiens, UniProt P36888).
T3 sequence (P36888 1-993): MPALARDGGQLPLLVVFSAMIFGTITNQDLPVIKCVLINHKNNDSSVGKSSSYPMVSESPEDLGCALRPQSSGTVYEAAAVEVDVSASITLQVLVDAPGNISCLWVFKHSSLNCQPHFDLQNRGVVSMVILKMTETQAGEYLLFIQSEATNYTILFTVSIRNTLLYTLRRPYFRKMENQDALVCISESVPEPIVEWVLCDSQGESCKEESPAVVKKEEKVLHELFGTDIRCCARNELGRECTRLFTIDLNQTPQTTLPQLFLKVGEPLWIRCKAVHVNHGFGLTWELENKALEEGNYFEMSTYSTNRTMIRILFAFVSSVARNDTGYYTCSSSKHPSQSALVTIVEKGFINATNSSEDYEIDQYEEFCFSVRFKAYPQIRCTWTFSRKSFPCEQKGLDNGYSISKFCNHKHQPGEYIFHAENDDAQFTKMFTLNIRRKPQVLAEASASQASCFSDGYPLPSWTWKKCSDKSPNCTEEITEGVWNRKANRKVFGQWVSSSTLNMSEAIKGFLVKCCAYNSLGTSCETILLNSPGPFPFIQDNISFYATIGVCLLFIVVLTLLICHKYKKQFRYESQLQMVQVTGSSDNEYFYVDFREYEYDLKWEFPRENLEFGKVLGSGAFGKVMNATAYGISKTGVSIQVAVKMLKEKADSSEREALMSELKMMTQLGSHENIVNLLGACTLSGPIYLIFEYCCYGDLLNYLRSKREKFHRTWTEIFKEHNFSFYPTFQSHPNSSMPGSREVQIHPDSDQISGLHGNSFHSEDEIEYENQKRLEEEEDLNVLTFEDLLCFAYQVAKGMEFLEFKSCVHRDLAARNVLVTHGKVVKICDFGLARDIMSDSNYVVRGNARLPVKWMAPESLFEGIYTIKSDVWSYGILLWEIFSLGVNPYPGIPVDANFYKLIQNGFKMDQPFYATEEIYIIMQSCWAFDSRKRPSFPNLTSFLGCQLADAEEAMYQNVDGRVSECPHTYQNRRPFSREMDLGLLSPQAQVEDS
The experiment in a line: ADP Glo kinase assay, FLT3(ITD). As to conditions: apparent Ki calculated from Km (ATP) and IC50, read-out: FLT3 inhibition Ki. In kind it is biochemical.

Another experiment deals with T4, FLT3(D835Y) (Homo sapiens, UniProt P36888, D835Y).
T4 sequence (P36888 27-993 D835Y): T2 sequence (P36888 27-993) with D809Y
The experiment in a line: ADP Glo kinase assay, FLT3(D835Y). Format: biochemical. The following applies: apparent Ki calculated from Km (ATP) and IC50, read-out: FLT3 inhibition Ki.

Experiment [2] deals with T1, CDK1B.
The mark [3] stands for this setting: compound at 1 μM (values marked *), read-out: residual enzymatic activity (%) at 1 μM*.

Sequence of CDK4/D1 (P11802 whole entry, species assumed): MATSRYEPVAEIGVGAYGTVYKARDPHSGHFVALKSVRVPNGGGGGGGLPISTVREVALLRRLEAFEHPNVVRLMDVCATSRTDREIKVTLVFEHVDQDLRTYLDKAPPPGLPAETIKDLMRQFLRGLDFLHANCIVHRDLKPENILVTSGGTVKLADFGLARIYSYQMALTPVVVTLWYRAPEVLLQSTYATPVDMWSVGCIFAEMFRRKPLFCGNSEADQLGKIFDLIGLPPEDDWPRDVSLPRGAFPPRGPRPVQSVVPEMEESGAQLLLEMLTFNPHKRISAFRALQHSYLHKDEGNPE
Sequence of CDK4/D1 (P24385 whole entry partner, species assumed): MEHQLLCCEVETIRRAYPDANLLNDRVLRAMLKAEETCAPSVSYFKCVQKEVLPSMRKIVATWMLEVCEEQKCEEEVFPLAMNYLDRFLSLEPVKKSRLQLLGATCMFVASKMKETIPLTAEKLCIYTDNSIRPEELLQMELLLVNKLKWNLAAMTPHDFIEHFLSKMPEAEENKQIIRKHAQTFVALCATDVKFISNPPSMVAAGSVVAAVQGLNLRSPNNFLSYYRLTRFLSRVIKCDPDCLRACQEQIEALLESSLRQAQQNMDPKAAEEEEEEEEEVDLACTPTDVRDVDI
Sequence of CDK7HMAT1 (P50613 whole entry): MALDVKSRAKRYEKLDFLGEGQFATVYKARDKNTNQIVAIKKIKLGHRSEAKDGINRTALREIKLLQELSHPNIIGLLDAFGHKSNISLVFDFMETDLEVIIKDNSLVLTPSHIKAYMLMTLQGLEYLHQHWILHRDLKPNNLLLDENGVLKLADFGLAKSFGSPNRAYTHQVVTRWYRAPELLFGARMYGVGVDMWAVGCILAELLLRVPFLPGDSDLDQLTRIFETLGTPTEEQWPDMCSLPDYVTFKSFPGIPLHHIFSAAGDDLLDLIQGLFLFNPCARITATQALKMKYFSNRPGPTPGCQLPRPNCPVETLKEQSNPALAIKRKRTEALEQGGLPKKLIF
Sequence of CDK7HMAT1 (P51946 whole entry partner): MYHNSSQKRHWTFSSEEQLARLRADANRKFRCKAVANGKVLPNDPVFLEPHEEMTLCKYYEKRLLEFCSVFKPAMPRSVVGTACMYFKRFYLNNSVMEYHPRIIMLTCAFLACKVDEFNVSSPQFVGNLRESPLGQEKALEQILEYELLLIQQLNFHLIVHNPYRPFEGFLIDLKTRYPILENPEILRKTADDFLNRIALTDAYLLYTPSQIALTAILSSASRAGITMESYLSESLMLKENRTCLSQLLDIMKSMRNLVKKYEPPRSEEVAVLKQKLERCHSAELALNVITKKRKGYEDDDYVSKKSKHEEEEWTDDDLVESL
Sequence of CDK7HMAT1 (P51948 whole entry partner): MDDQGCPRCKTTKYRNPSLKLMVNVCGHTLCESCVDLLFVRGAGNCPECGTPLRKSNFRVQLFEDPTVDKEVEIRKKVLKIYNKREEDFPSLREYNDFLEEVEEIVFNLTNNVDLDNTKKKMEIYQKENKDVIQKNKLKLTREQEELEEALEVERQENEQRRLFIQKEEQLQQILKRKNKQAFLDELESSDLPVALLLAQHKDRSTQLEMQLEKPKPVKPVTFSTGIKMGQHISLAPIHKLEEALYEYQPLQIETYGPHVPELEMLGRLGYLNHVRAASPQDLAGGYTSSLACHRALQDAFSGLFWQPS
T1 sequence (P06493 whole entry): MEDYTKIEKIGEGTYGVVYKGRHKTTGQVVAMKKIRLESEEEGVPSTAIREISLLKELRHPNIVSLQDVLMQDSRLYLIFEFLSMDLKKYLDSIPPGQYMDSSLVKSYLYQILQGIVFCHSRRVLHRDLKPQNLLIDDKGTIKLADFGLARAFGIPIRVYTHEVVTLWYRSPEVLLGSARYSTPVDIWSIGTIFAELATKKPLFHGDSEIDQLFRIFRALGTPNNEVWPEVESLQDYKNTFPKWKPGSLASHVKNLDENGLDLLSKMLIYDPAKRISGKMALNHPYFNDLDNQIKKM
T1 sequence (P14635 whole entry partner): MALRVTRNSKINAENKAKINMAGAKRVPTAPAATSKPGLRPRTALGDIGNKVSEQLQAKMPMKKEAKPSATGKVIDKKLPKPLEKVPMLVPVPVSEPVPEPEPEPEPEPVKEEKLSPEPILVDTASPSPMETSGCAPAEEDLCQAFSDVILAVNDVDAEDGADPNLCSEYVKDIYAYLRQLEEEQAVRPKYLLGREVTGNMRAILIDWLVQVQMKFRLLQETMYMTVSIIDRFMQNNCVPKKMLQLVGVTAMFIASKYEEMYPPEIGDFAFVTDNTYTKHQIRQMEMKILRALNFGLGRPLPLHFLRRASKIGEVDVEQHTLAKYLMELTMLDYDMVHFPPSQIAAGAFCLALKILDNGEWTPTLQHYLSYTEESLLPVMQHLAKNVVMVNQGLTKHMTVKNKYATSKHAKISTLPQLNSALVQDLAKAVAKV
Sequence of CDK9/CyclinT1 (P50750 whole entry, species assumed): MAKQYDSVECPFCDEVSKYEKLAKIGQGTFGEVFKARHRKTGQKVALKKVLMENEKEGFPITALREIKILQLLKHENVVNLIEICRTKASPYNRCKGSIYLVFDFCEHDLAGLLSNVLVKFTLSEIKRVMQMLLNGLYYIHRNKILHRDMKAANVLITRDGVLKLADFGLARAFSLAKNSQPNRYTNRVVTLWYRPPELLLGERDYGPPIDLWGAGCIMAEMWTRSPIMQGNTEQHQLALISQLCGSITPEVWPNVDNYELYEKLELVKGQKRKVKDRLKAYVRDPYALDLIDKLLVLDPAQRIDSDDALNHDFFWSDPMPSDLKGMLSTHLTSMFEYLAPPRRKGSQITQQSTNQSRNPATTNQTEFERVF
Sequence of CDK9/CyclinT1 (O60563 whole entry partner, species assumed): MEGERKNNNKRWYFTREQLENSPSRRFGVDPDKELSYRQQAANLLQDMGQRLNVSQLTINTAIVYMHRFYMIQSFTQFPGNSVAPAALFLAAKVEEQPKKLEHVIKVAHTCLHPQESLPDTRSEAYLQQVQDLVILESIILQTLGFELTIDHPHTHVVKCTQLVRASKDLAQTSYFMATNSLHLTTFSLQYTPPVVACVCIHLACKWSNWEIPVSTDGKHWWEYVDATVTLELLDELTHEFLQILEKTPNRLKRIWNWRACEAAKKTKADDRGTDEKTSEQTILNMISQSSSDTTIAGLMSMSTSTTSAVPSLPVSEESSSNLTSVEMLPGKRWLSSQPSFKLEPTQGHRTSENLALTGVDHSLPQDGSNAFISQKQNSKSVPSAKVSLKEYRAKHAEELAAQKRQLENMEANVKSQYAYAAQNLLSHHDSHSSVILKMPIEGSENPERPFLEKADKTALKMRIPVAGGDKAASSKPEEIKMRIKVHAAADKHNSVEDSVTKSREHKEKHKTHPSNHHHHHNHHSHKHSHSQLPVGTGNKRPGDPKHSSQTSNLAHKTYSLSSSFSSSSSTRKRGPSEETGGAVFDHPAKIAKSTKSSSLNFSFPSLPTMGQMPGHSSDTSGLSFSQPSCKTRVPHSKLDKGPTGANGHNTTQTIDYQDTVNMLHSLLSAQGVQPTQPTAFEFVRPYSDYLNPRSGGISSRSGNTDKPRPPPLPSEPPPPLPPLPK
Sequence of CDK6/D3 (Q00534 whole entry, species assumed): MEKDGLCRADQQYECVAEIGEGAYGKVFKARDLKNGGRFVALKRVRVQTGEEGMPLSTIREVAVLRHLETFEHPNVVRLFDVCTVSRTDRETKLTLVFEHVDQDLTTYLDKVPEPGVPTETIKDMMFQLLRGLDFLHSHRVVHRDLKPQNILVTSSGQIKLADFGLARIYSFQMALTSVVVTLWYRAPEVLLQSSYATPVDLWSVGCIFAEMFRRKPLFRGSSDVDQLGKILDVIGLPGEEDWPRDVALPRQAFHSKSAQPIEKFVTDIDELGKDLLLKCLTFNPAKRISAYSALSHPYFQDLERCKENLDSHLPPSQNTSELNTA
Sequence of CDK6/D3 (P30281 whole entry partner, species assumed): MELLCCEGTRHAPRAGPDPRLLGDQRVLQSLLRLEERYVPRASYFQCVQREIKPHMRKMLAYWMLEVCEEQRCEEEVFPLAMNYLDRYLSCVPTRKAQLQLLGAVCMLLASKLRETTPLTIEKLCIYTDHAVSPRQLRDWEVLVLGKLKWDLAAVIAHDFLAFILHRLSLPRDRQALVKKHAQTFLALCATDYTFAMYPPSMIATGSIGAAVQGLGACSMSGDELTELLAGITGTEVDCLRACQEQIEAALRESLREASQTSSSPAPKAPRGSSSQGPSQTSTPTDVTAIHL
Procedure for CDK4/D1: (§1) Inhibition of FLT3(WT), FLT3(ITD) and FLT3(D835Y) and CDKs were determined using ADP Glo Kinase assays (Promega Corporation, Madison, WI, USA). […] Similarly, kinase reaction for CDK4/D1 and CDK6/D3 was performed with reaction buffer (40 nM Tris base pH 7.5, 20 mM MgCl2, 0.4 mM DTT), 0.1 mg/ml BSA and RB-CTF substrate (retinoblastoma protein1 C-terminal fraction). For CDK9/CyclinT1, the kinase reaction was performed with the standard assay buffer and Kinase Dilution Buffer and RBER-IRStide substrate. Half-maximal inhibition (IC50) values were calculated using a 4-parameter logistic non-linear regression model with Graphpad prism (Version 6.0). Apparent inhibition constants (Ki) values were calculated from Km (ATP) and IC50 values for the respective kinases.
Procedure for CDK9/CyclinT1: as §1
Procedure for FLT3(ITD): (§2) Inhibition of FLT3(WT), FLT3(ITD) and FLT3(D835Y) and CDKs were determined using ADP Glo Kinase assays (Promega Corporation, Madison, WI, USA). […] The kinase reactions are run for an optimised time period (FLT3-WT: 120 min, FLT3-ITD: 80 min, FLT3-D835Y: 100 min) at room temperature and then the reaction was stopped by adding 5 μL of ADP Glo reagent. […] Positive and negative controls were performed in 0.5% DMSO in the presence and absence of each FLT3 kinase, respectively. […] Half-maximal inhibition (IC50) values were calculated using a 4-parameter logistic non-linear regression model with Graphpad prism (Version 6.0). Apparent inhibition constants (Ki) values were calculated from Km (ATP) and IC50 values for the respective kinases.
Procedure for FLT3(WT): as §2

On to `c1ccn2c(-c3ccnc(Nc4ccc(N5CCOCC5)cn4)n3)cnc2c1` [Cmpd 4, 4-(Imidazo[1,2-a]pyridin-3-yl)-N-(5-morpholinopyridin-2-yl)pyrimidin-2-amine], for which the results for the remaining activity at 10 µM at CDK4/D1 and at CDK9/CyclinT1 were 38% and 28%, respectively. The negative logarithm of the Ki (pKi) is 5.54 on CDK6/D3 and 5.83 at CDK1B [1]. Further, the concentration for 50% growth inhibition (GI50) in the experiment on MV-4-11 is 38 nM; in the experiment with U937 it was 3360 nM. Also, the activity on CDK2E1 (1 µM) stood at 72%; on CDK7HMAT1 (10 µM) it was 74%.
`CC(=O)N1CCN(c2ccc(Nc3nccc(-c4cnc5ccc(Br)cn45)n3)nc2)CC1` [Cmpd 10, 1-(4-(6-((4-(6-Bromoimidazo[1,2-a]pyridin-3-yl)pyrimidin-2-yl)amino)pyridin-3-yl)piperazin-1-yl)ethan-1-one]: the remaining activity at 10 µM on CDK4/D1 stood at 34%; at CDK6/D3, 36%; at CDK9/CyclinT1 it was 23%. Moreover, the pKi at FLT3(WT) was 7.08; on FLT3(ITD), 8.22; on FLT3(D835Y), 8.00. In addition, the concentration for 50% growth inhibition (GI50) came out at 2 nM with MV-4-11 and 3130 nM in the experiment on U937. Also, the figures for the activity at CDK1B [2] (10 µM), at CDK2E1 (1 µM) and on CDK7HMAT1 (10 µM) were 41%, 58% and 55%, respectively.
On to `CC(=O)N1CCN(c2ccc(Nc3nccc(-c4cnc5ccc(-c6cnc(N7CCN(C)CC7)nc6)cn45)n3)nc2)CC1` [Cmpd 20, 1-(4-(6-((4-(6-(2-(4-Methylpiperazin-1-yl)pyrimidin-5-yl)imidazo[1,2-a]pyridin-3-yl)pyrimidin-2-yl)amino)pyridin-3-yl)piperazin-1-yl)ethan-1-one], for which the remaining activity at 10 µM on CDK4/D1 was 70%; on CDK6/D3 it was 77%; at CDK9/CyclinT1, 38%. Also, the remaining activity at 1 µM at FLT3(WT) came to 36%. In addition, the negative logarithm of the Ki (pKi) was 6.90 on FLT3(ITD) and 7.24 on FLT3(D835Y). Also, the GI50 with MV-4-11 was found to be 60 nM; in the experiment on U937 it was 4040 nM. The activity at CDK1B [2] (10 µM) stood at 100%; on CDK2E1 (1 µM) it was 83%; at CDK7HMAT1 (10 µM) it was 66%.
Consider `c1ccn2c(-c3ccnc(Nc4ccc(N5CCCCC5)cn4)n3)cnc2c1` [Cmpd 5, 4-(Imidazo[1,2-a]pyridin-3-yl)-N-(5-(piperidin-1-yl)pyridin-2-yl)pyrimidin-2-amine], for which the remaining activity at 10 µM at CDK4/D1 worked out at 53%; at CDK6/D3, 23%; at CDK9/CyclinT1 it was 28%. Moreover, the remaining activity at 1 µM at FLT3(WT) is 45%. For the same compound, the pKi on FLT3(ITD) was 7.20; at FLT3(D835Y) it was 7.35. The GI50 with MV-4-11 is 75 nM; with U937, 6200 nM. The results for the activity on CDK1B [2] (10 µM), at CDK2E1 (1 µM) and at CDK7HMAT1 (10 µM) were 48%, 81% and 84%, respectively.
As to `CC(=O)N1CCN(c2ccc(Nc3nccc(-c4cnc5ccc(I)cn45)n3)nc2)CC1` [Cmpd 43, 1-(4-(6-((4-(6-Iodoimidazo[1,2-a]pyridin-3-yl)pyrimidin-2-yl)amino)pyridin-3-yl)piperazin-1-yl)ethan-1-one], the remaining activity at 1 µM at CDK4/D1 (setting [3]) and at CDK6/D3 (setting [3]) was 70% in each case. For the same compound, the pKi on CDK9/CyclinT1 was 6.32; on FLT3(WT), 7.42; at FLT3(ITD), 7.36; on FLT3(D835Y), 7.74. In addition, the GI50 with MV-4-11 is 6 nM; in the experiment on U937, 3570 nM. Moreover, the activity turned out to be 92% at CDK1B [2] (1 µM), 75% at CDK2E1 (1 µM) and 75% at CDK7HMAT1 (1 µM).
Consider `CC(=O)N1CCN(c2ccc(Nc3nccc(-c4cnc5ccccn45)n3)nc2)CC1` [Cmpd 3, 1-(4-(6-((4-(Imidazo[1,2-a]pyridin-3-yl)pyrimidin-2-yl)amino)pyridin-3-yl)piperazin-1-yl)ethan-1-one], for which the pKi on CDK4/D1 (apparent Ki calculated from Km (ATP) and IC50, read-out: CDK inhibition Ki) was 5.70; at CDK6/D3, less than 5.00; on CDK9/CyclinT1, 6.28; on CDK1B [1] it was 5.46. Moreover, the GI50 worked out at 20 nM with MV-4-11 and 2850 nM in the experiment with U937. This compound gave an activity at CDK2E1 (10 µM) of 49%.

Source of the values: US12398132B2, “Derivatives of 4-(imidazo[1,2-a]pyridin-3-yl)-n-(pyridinyl)pyrimidin-2-amine as therapeutic agents” (AUCENTRA THERAPEUTICS PTY LTD, priority 2019, dated 2025).
